This test concerns the target T1, hyperactive mutant BKCa channels (hSlo G803D/N806K) stably expressed in AD 293 cells (Homo sapiens, UniProt Q12791, G856D/N859K).
T1 construct: expressed in transfected cells
Briefly: Cell-based fluorescence assay (FluxOR Potassium Ion Channel Assay) of BKCa channel activation. Further details: key to Channel activity increase for 80 s (ΔRFU) at 6 μM: ratio of ΔRFU (RFU at 100 s − 20 s) to the same ΔRFU for vehicle. The following applies: for Initial velocity of channel activation for 4 s (vi) at 6 μM: first 4 s after channel stimulation; for Channel activity increase for 80 s (ΔRFU) at 6 μM: normalized by vehicle; for EC50: fit of dose-response curve of initial rates, read-out: Apparent EC50 based on vi. The protocol:
AD 293 cells, which are derivatives of the commonly used HEK 293 cell line and stably express hyperactive mutant BKCa channels (hSlo G803D/N806K) to sensitively detect the effect (Lee et al., 2013), were cultured in Dulbecco' modified Eagle medium (Hyclone, Logan, Utah, […]) supplemented with 10% fetal bovine serum, and selected with 1 mg/mL Geneticin (Gibco, Amarillo, TX, USA). 20,000 cells per well were seeded on a 96-well clear-bottom black plate (Corning, New York, NY, USA) coated with poly-D-lysine (Gibco). BKCa channel activity was measured using the cell-based fluorescence assay, FluxOR Potassium Ion Channel Assay (Thermo Fisher Scientific, Waltham, MA, USA). Experimental procedures were performed according to the manufacturer's instructions. The cells were treated with test compounds dissolved in assay buffer for 15 minutes. Fluorescence was measured using a FlexStation3 multimode microplate reader (Molecular Devices, Silicon Valley, CA, USA) and SoftMax Pro (Molecular Devices). Excitation and emission wavelengths were set to 485 nm and 528 nm, respectively. Fluorescence signals were acquired every 2 seconds for 120 seconds and normalized by the relative fluorescence unit (RFU). The efficacy of a channel activator was determined by analyzing changes (ΔRFU) in the RFU for 80 seconds after channel stimulation.
Activation effects of the synthesized compounds on BKCa channels were evaluated using cell-based fluorescence assay. NS11021 was used as the positive control. The effects were determined based on the initial rate (vi) of channel activation and the apparent EC50 value obtained from fitting data of the dose-response curve. Here, Vi means change values for 4 seconds at the start of channel opening (vi={RFU(t=24 s)−RFU(t=20 s)}/4 s). […]

The term EC50 denotes the concentration at which the effect is half-maximal.

T1 sequence (Q12791 whole entry G856D/N859K): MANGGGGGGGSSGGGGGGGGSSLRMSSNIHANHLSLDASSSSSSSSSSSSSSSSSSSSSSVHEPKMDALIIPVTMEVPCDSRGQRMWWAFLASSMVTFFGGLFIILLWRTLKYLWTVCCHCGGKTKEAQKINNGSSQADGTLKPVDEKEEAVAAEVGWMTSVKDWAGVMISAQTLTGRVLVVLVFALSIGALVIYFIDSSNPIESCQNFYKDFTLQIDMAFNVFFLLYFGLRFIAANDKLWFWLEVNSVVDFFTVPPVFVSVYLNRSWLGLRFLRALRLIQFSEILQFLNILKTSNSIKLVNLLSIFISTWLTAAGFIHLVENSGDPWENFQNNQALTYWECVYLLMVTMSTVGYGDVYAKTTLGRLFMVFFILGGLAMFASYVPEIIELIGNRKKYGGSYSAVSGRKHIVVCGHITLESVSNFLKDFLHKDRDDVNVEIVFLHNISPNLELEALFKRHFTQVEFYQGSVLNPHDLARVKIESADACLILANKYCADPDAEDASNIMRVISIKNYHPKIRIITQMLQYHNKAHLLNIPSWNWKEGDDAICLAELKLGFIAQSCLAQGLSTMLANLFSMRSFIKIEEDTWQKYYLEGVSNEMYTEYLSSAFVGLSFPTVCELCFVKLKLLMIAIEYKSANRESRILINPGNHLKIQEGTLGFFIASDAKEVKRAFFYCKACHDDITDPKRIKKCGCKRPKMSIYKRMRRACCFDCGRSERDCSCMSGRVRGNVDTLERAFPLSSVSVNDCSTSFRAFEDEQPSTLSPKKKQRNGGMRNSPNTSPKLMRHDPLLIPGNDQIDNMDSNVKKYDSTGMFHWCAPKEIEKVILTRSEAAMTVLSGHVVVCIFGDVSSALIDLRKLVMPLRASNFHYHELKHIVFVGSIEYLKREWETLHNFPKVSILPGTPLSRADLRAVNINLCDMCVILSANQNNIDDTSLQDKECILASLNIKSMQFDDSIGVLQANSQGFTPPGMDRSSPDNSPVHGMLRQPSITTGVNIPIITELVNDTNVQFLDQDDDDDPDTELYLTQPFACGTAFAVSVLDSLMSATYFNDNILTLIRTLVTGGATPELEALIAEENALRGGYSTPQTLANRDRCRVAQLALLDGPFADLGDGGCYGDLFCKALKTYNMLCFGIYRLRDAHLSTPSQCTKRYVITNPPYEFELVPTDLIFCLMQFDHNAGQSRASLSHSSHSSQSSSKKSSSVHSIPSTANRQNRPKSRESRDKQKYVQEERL

For `O=C(O)c1sc(=S)n2c1[nH]c(=O)c1ccccc12` [Compound 3, 5-oxo-1-thioxo-4,5-dihydro-1H-thiazolo[3,4-a]quinazoline-3-carboxylic acid], the “Initial velocity of channel activation for 4 s (vi) at 6 μM” value (“Initial velocity of channel activation” for short) was 0.38 s⁻¹, the “Channel activity increase for 80 s (ΔRFU) at 6 μM” value came out at 1.38 and the EC50 came out at 12.7 µM.

On to `NC(=O)c1sc(=S)n2c1[nH]c(=O)c1ccccc12` [Compound 4, 5-oxo-1-thioxo-4,5-dihydro-1H-thiazolo[3,4-a]quinazoline-3-carboxamide], for which the “Initial velocity of channel activation” value was found to be 0.32 s⁻¹ and the “Channel activity increase for 80 s (ΔRFU) at 6 μM” value came to 0.96.

On to `O=C(NCc1ccccc1)c1sc(=S)n2c1[nH]c(=O)c1ccccc12` [Compound 5, N-benzyl-5-oxo-1-thioxo-4,5-dihydro-1H-thiazolo[3,4-a]quinazoline-3-carboxamide], for which the “Initial velocity of channel activation” value turned out to be 0.26 s⁻¹ and the “Channel activity increase for 80 s (ΔRFU) at 6 μM” value is recorded as 1.10.

Regarding `O=C(Nc1ccccc1)c1sc(=S)n2c1[nH]c(=O)c1ccccc12` [Compound 101, 5-oxo-N-phenyl-1-thioxo-4,5-dihydro-1H-thiazolo[3,4-a]quinazoline-3-carboxamide], the “Initial velocity of channel activation” value was found to be 0.42 s⁻¹ and the “Channel activity increase for 80 s (ΔRFU) at 6 μM” value is on record as 1.03.

Turning to `Cc1ccc2c(=O)[nH]c3c(C(=O)Nc4ccccc4)sc(=S)n3c2c1` [Compound 102, 8-methyl-5-oxo-N-phenyl-1-thioxo-4,5-dihydro-1H-thiazolo[3,4-a]quinazoline-3-carboxamide], the “Initial velocity of channel activation” value is 0.23 s⁻¹ and the “Channel activity increase for 80 s (ΔRFU) at 6 μM” value is given as 1.06.

Consider `O=C(Nc1ccccc1)c1sc(=S)n2c1[nH]c(=O)c1ccc(Cl)cc12` [Compound 103, 8-chloro-5-oxo-N-phenyl-1-thioxo-4,5-dihydro-1H-thiazolo[3,4-a]quinazoline-3-carboxamide], for which the “Channel activity increase for 80 s (ΔRFU) at 6 μM” value worked out at 1.56.

As to `O=C(Nc1ccccc1)c1sc(=S)n2c1[nH]c(=O)c1ccc(Br)cc12` [Compound 104, 8-bromo-5-oxo-N-phenyl-1-thioxo-4,5-dihydro-1H-thiazolo[3,4-a]quinazoline-3-carboxamide], the “Channel activity increase for 80 s (ΔRFU) at 6 μM” value came out at 1.25.

For the molecule `Cc1ccc2c(c1)c(=O)[nH]c1c(C(=O)Nc3ccccc3)sc(=S)n12` [Compound 105, 7-methyl-5-oxo-N-phenyl-1-thioxo-4,5-dihydro-1H-thiazolo[3,4-a]quinazoline-3-carboxamide], the “Initial velocity of channel activation” value came out at 0.32 s⁻¹ and the “Channel activity increase for 80 s (ΔRFU) at 6 μM” value is listed as 1.16.

`O=C(Nc1ccccc1)c1sc(=S)n2c1[nH]c(=O)c1cc(Cl)ccc12` [Compound 106, 7-chloro-5-oxo-N-phenyl-1-thioxo-4,5-dihydro-1H-thiazolo[3,4-a]quinazoline-3-carboxamide]: the “Initial velocity of channel activation” value was determined as 0.38 s⁻¹ and the “Channel activity increase for 80 s (ΔRFU) at 6 μM” value worked out at 1.18.

Consider `O=C(Nc1ccccc1)c1sc(=S)n2c1[nH]c(=O)c1cc(Br)ccc12` [Compound 107, 7-bromo-5-oxo-N-phenyl-1-thioxo-4,5-dihydro-1H-thiazolo[3,4-a]quinazoline-3-carboxamide], for which the “Initial velocity of channel activation” value was 5.51 s⁻¹, the “Channel activity increase for 80 s (ΔRFU) at 6 μM” value is listed as 3.83 and the EC50 is 12.3 µM.

For `Cc1ccccc1NC(=O)c1sc(=S)n2c1[nH]c(=O)c1cc(Br)ccc12` [Compound 201, 7-bromo-5-oxo-1-thioxo-N-(o-tolyl)-4,5-dihydro-1H-thiazolo[3,4-a]quinazoline-3-carboxamide], the “Initial velocity of channel activation” value came out at 9.40 s⁻¹, the “Channel activity increase for 80 s (ΔRFU) at 6 μM” value is on record as 3.68 and the half-maximal effective concentration (EC50) came out at 4.6 µM.

Values taken from patent US20240398813A1, “PHARMACEUTICAL COMPOSITION FOR PREVENTING OR TREATING OVERACTIVE BLADDER” (GWANGJU INSTITUTE OF SCIENCE AND TECHNOLOGY, priority 2021, published 2024).
